The results in this text go back to patent US10040804B2, “Compounds targeting proteins, compositions, methods, and uses thereof” (BioTheryX, Inc., priority 2016, dated 2018).

pIC50: −log10 of the molar value.

Assay [1] deals with H1048 cells. Briefly: H1048 cell viability (CellTiter-Glo). The class given is cell-based. To be noted: Homo sapiens; for viability at 1 µM / viability at 10 µM: NCI-H1048, 72 h, H1048, 3 days, DMSO = 100.00; for viability at 1 µM: 1 μM compound concentration; for viability at 10 µM: 10 μM compound concentration. Here is the method:
(§1) FIG. 10A is a graph showing antiproliferative activity in H1048 (SCLC) cells. FIG. 10B is a graph showing antiproliferative activity in Molm-13 (AML) cells. In FIGS. 10A and 10B, the cells were incubated for 72 hrs with Compound 9 at the indicated concentrations or DMSO. Compound activity was measured based on the signal from remaining viable cells.
(§2) Molm-13 cells were cultivated in RPMI-1640 (10% FBS/1% pen-strep) and were plated in white walled 96-well plates at 20,000 cells/well. H1048 cells were cultured in DMEM:F12 media supplemented with 5% fetal bovine serum, insulin, transferrin, sodium selenite, hydrocortisone, β-estradiol, penicillin and streptomycin, and were plated in white walled 96-well plates at 20,000 cells/well. MDA-MB-231 cells were cultured in DMEM media supplemented with 10% fetal bovine serum, penicillin and streptomycin, and were plated in white walled 96-well plates at 10,000 cells/well. Cells were treated with compound or DMSO (0.1%, control) and the cultures were incubated for 3 days at 37° C. and 5% CO2. Following the incubation period, 100 μL of CellTiterGlow (CTG) reagent (CellTiter-Glo® Luminescent Cell Viability Assay, Promega (Madison, Wis.)) was added to each well. Following a 10 min incubation with shaking, luminescence was measured using a Victor Wallac Luminometer.

Assay [2] relates to IL-6. Briefly: IL-6 expression in LPS stimulated PBMCs (Meso Scale). The conditions noted are these: for inhibition at 10 µM: compound concentration 10 μM; for inhibition at 1 µM: compound concentration 1 μM. The class given is cell-based, human. Here is the method:
FIGS. 6 and 9B are graphs showing IL-6 expression in LPS stimulated peripheral blood mononuclear cells (PBMCs). PBMCs were plated in 96-well plates and pretreated with compound (Compound 1-9 individually) for 1 h, and then induced with 100 ng/mL LPS for 18-24 h. Cytokines were measured according to MesoScale protocol. Negative control wells were treated with DMSO. Compound activity was measured as a percentage of LPS-induced activity. “Rev” is lenalidomide.
(§3) Frozen primary blood mononuclear cells (PBMCs) and frozen CD14+ mobilized peripheral blood monocytes were purchased from AllCells. Cells were quick thawed, and washed 1-time with RPMI-1640/10% FBS/1% Penicillin/1% Streptomycin and plated in 96-well plates at 200,000 cells per well. Cells were pretreated with DMSO only, Compound 5013 (lenolidamide) or the indicated compound for 1 h and then induced with 100 ng/mL lipopolysaccharide (LPS) for 18-24 h. The supernatant was analyzed for IL-1 beta, IL-6, and TNF-α using Meso Scale assay according to manufacturer's protocol. The negative control wells were treated with DMSO.
(§4) PBMCs: AllCells PB003F, Normal Peripheral Blood MNC.
(§5) Media: RPMI 1640/10% FBS/1% Pen-Strep.

Assay [3] deals with Molm-13 cells. Briefly: Molm-13 cell viability (CellTiter-Glo). The class given is cell-based. The conditions noted are these: Homo sapiens; for cytotoxicity at 10 µM: compound concentration 10 μM; for cytotoxicity at 1 µM: compound concentration 1 μM. The method, then: as §1, §2
On the technique in general: In ATP-based viability assays light output follows the ATP content of the culture.

Assay [4] has as its target T1, GSPT1 (Homo sapiens, UniProt P15170).
T1 construct: Whole cell extracts were prepared using RIPA buffer according to manufacturer's protocol (Pierce); endogenous in cells
Briefly: GSPT1 protein levels by Western Blot analysis. The class given is cell-based. The conditions noted are these: DMSO = 100.00. Here is the method:
Cells were lysed using RIPA Buffer (Pierce) and a Western Blot analysis was performed using anti-GSPT1 and anti-β-actin antibodies. FIG. 11B is a graph showing the expression levels of GSPT1 protein in Molm-13 (AML) cells. Protein expression levels were measured using the LiCor Odyssey instrumentation and methods.
Western Blot Protocol: Cell lines were grown in RPMI 1640 supplemented with streptomycin, penicillin and 10% fetal bovine serum.
Cells were cultured at approximately 10^6 cells per mL and incubated in DMSO or each of the indicated compounds for 6-8 h. Whole cell extracts were prepared using RIPA buffer according to manufacturer's protocol (Pierce). Briefly, 2×10^6 cells were washed once in PBS, the cell pellets were resuspended in RIPA buffer and allowed to incubate for 15 minutes on ice. Cells debris was removed by centrifugation and the cleared whole cell lysates were transferred to new tubes for further analysis.
For Western blot analysis, whole cell protein extracts were separated on 4-12% SDS-polyacrylamide gels, transferred to nitrocellulose, and probed with the indicated primary antibodies. Membranes were subsequently washed and probed with the appropriate IRDye secondary antibodies (LI-COR). The signal was detected using the Odyssey Imaging System (LI-COR).
GSPT1: Rabbit anti-GSPT1 was obtained from Abcam, ab126090 (Cambridge, Eng.)

Assay [5] deals with TNF-α. Briefly: TNF-α expression in LPS stimulated PBMCs (Meso Scale). The class given is cell-based, human. To be noted: for inhibition at 10 µM: compound concentration 10 μM; for inhibition at 1 µM: compound concentration 1 μM. Here is the method: FIGS. 7 and 9C are graphs showing TNF-a expression in LPS stimulated peripheral blood mononuclear cells (PBMCs). PBMCs were plated in 96-well plates and pretreated with compound (Compound 1-9 individually) for 1 h, and then induced with 100 ng/mL LPS for 18-24 h. Cytokines in the media were measured according to MesoScale protocol. The negative control wells were treated with DMSO. Compound activity is measured as a percentage of LPS-induced activity. “Rev” is lenalidomide.
as §3, §4, §5

Assay [6] deals with MDA-MB-231 cells. Briefly: MDA-MB-231 cell viability (CellTiter-Glo). The class given is cell-based. The conditions noted are these: Homo sapiens, 72 h, 3 days, DMSO = 100.00; for viability at 1 µM: 1 μM compound concentration; for viability at 10 µM: 10 μM compound concentration. The method, then:
as §2

Assay [7] relates to IL-1β. In words: IL-1β expression in LPS stimulated PBMCs (Meso Scale). The class given is cell-based, human. The conditions noted are these: for inhibition at 10 µM: compound concentration 10 μM; for inhibition at 1 µM: compound concentration 1 μM. The method, then: FIGS. 5 and 9A are graphs showing IL-1-beta expression in LPS stimulated peripheral blood mononuclear cells (PBMCs), PBMCs were plated in 96-well plates and pretreated with compound (Compound 1-9 individually) for 1 h, and then induced with 100 ng/mL LPS for 18-24 h. Cytokines in the media were measured according to MesoScale protocol. Negative control wells were treated with DMSO. Compound activity is measured as a percentage of LPS-induced activity. “Rev” is lenalidomide.
as §3, §4, §5

Setting [8] is: Homo sapiens, PBMC, compound concentration 0.1 μM.
The mark [9] stands for this setting: Homo sapiens, PBMC, LPS-stimulated PBMCs.
[10] abbreviates: MOLM-13, read-out: % Inhibition (MOLM-13 Cell Viability).

T1 sequence (P15170 whole entry): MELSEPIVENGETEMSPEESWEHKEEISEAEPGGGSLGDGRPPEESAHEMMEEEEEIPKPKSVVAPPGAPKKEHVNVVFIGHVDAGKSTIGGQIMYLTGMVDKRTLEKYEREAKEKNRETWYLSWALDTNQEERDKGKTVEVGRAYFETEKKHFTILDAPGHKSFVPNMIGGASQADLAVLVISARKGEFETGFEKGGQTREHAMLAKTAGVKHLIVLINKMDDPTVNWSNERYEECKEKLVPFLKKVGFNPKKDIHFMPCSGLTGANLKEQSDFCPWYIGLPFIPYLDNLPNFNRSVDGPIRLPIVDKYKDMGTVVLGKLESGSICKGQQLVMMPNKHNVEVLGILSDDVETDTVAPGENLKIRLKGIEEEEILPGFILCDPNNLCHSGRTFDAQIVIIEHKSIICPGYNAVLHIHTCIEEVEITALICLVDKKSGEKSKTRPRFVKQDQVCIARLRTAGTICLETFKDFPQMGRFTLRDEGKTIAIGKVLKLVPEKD
T1 sequence (Q96SW2 whole entry, further chain): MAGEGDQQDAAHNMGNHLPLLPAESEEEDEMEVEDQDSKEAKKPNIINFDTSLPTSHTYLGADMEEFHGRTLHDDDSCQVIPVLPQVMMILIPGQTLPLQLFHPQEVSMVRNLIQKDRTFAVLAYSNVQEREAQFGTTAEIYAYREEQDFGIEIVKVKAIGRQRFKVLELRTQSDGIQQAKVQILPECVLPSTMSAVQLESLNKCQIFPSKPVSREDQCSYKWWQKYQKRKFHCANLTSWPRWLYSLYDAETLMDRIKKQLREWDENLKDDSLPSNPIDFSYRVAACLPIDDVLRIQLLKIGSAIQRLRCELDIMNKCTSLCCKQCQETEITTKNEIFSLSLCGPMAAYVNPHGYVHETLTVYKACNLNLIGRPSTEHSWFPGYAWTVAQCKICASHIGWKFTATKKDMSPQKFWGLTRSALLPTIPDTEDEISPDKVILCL
T1 sequence (Q16531 whole entry partner): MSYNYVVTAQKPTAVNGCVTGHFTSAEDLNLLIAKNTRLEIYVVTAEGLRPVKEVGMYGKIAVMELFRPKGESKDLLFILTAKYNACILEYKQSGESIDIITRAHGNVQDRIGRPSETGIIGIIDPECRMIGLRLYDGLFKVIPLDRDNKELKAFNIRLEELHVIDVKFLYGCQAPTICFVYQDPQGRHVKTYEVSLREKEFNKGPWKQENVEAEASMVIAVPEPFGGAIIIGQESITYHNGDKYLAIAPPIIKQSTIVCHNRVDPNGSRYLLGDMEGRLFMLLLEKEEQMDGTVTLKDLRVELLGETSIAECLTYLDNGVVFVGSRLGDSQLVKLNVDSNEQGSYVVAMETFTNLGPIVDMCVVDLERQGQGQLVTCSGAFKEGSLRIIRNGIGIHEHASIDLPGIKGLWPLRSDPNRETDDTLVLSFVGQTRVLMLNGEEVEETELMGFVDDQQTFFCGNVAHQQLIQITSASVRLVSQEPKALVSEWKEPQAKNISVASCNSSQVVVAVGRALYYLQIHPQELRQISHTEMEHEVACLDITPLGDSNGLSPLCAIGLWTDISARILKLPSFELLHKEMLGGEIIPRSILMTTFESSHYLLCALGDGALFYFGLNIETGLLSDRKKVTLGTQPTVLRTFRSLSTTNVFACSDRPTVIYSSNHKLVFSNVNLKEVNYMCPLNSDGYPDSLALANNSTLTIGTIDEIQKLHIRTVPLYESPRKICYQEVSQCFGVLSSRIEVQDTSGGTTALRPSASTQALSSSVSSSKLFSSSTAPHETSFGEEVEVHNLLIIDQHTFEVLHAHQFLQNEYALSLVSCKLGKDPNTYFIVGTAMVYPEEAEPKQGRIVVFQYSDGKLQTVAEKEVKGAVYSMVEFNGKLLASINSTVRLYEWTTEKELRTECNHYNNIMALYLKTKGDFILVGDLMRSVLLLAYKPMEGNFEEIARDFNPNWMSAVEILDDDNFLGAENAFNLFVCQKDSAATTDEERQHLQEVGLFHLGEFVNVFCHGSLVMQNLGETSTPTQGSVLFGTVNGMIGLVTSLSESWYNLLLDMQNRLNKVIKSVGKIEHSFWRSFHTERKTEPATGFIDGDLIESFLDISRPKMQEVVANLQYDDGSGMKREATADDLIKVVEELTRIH

As for `Cc1ccc(NC(=O)NCc2scc3c2CN(C2CCC(=O)NC2=O)C3=O)cc1Cl` (stereo not drawn) [Compound 9, 1-(3-chloro-4-methylphenyl)-3-((5-(2,6-dioxopiperidin-3-yl)-4-oxo-5,6-dihydro-4H-thieno[3,4-c]pyrrol-1-yl)methyl)urea], the viability at 1 µM in assay [1] stood at 7.5%; in assay [6], 19.6%. In addition, the viability at 10 µM in assay [1] is 7.93%; in assay [6], 19.1%. For the same compound, the pIC50 in assay [1] (NCI-H1048, H1048 cells, 72 hrs (FIG. 10A)) was 9.30; in assay [3] (Molm-13 cells, 72 hrs (FIG. 10B), read-out: approximate IC50 cell viability), about 8.52. For the same compound, the inhibition at 0.1 µM was 100% in assay [2] (Homo sapiens, PBMC, compound concentration 0.1 μM, LPS-stimulated PBMCs); 98% in assay [5] (setting [8]); 98% in assay [7] (setting [8]). Besides, in assay [3] (MOLM-13, compound concentration 0.003 μM, read-out: % Inhibition (MOLM-13 Cell Viability)), the cytotoxicity at 0.003 µM amounted to 50%. In assay [4] (100 nM compound concentration), this compound returned a remaining activity at 0.1 µM of 6.77%. For the same compound, the remaining activity at 1 µM in assay [4] (1 μM compound concentration) is 5.31%.
For the compound `O=C1CCC(N2Cc3c(csc3C(F)(F)F)C2=O)C(=O)N1` (stereo not drawn) [Compound 29, 3-(4-Oxo-1-(trifluoromethyl)-4H-thieno[3,4-c]pyrrol-5(6H)-yl)piperidine-2,6-dione], the inhibition at 10 µM in assay [2] (setting [9]) came out at 19%; in assay [5] (Homo sapiens, PBMC) it was 60%; in assay [7] (Homo sapiens, PBMC), 57%. For the same compound, in assay [3] (setting [10]), the cytotoxicity at 10 µM came to 10%.
As for `Cc1ccc(NC(=O)Nc2scc3c2CN(C2CCC(=O)NC2=O)C3=O)cc1Cl` (stereo not drawn) [Compound 50, 1-(3-Chloro-4-methylphenyl)-3-(5-(2,6-dioxopiperidin-3-yl)-4-oxo-5,6-dihydro-4H-thieno[3,4-c]pyrrol-1-yl)urea], the viability at 1 µM was found to be 15.8% in assay [1] and 108% in assay [6]. Further, the viability at 10 µM in assay [1] worked out at 13.4%; in assay [6], 95.7%. Besides, the inhibition at 1 µM in assay [2] (setting [9]) was found to be 0%; in assay [5] (Homo sapiens, PBMC), 1%; in assay [7] (Homo sapiens, PBMC) it was 14%. Also, the cytotoxicity at 1 µM in assay [3] (setting [10]) stood at 41%.
Regarding `Cc1ccc(CNC(=O)NCc2csc3c2CN([C@H]2CCCC(=O)NC2=O)C3=O)cc1Cl` [Compound 51, (S)-1-(3-Chloro-4-methylbenzyl)-3-((5-(2,7-dioxoazepan-3-yl)-6-oxo-5,6-dihydro-4H-thieno[2,3-c]pyrrol-3-yl)methyl)urea], the viability at 1 µM in assay [1] amounted to 94.9%; in assay [6] it was 108%. Further, the values for the viability at 10 µM in assay [1] and in assay [6] were 24.1% and 103%, respectively. Moreover, the inhibition at 1 µM amounted to 5% in assay [2] (setting [9]); 49% in assay [5] (Homo sapiens, PBMC); 38% in assay [7] (Homo sapiens, PBMC). Moreover, in assay [3] (setting [10]), the cytotoxicity at 1 µM is 0%.
Turning to `Cc1ccc(CC(=O)Nc2scc3c2CN(C2CCC(=O)NC2=O)C3=O)cc1Cl` (stereo not drawn) [Compound 56, 2-(3-Chloro-4-methylphenyl)-N-(5-(2,6-dioxopiperidin-3-yl)-4-oxo-5,6-dihydro-4H-thieno[3,4-c]pyrrol-1-yl)acetamide], the viability at 1 µM was determined as 29.1% in assay [1] and 108% in assay [6]. The viability at 10 µM is 26.3% in assay [1] and 101% in assay [6]. The inhibition at 1 µM in assay [2] (setting [9]) was 12%; in assay [5] (Homo sapiens, PBMC), 59%; in assay [7] (Homo sapiens, PBMC), 55%. The cytotoxicity at 0.1 µM in assay [3] (MOLM-13, compound concentration 0.1 μM, read-out: % Inhibition (MOLM-13 Cell Viability)) stood at 10%.
For the compound `Cc1cnc(Nc2ccc(OCCCNC(=O)NCc3scc4c3CN(C3CCC(=O)NC3=O)C4=O)cc2)nc1Nc1cccc(S(=O)(=O)NC(C)(C)C)c1` (stereo not drawn) [Compound 62, N-(tert-Butyl)-3-((2-((4-(3-(3-((5-(2,6-dioxopiperidin-3-yl)-4-oxo-5,6-dihydro-4H-thieno[3,4-c]pyrrol-1-yl)methyl)ureido)propoxy)phenyl)amino)-5-methylpyrimidin-4-yl)amino)benzenesulfonamide], the inhibition at 10 µM in assay [2] (setting [9]) came out at 15%; in assay [5] (Homo sapiens, PBMC), 63%; in assay [7] (Homo sapiens, PBMC) it was 51%. Moreover, the cytotoxicity at 1 µM in assay [3] (setting [10]) stood at 71%.
For the compound `Cc1sc2c(c1C)C(c1ccc(Cl)cc1)=N[C@@H](CC(=O)NCCCCNCC(=O)NCc1scc3c1CN([C@H]1CCCC(=O)NC1=O)C3=O)c1nnc(C)n1-2` [Compound 63, 2-((S)-4-(4-Chlorophenyl)-2,3,9-trimethyl-6H-thieno[3,2-f][1,2,4]triazolo[4,3-a][1,4]diazepin-6-yl)-N-(4-((2-(((5-((S)-2,7-dioxoazepan-3-yl)-4-oxo-5,6-dihydro-4H-thieno[3,4-c]pyrrol-1-yl)methyl)amino)-2-oxoethyl)amino)butyl)acetamide], the inhibition at 10 µM in assay [2] (setting [9]) came to 1%; in assay [5] (Homo sapiens, PBMC), 34%; in assay [7] (Homo sapiens, PBMC), 27%.
Consider `O=C1CCC(N2Cc3c(C4CCCC4)csc3C2=O)C(=O)N1` (stereo not drawn) [Compound 64, 3-(3-Cyclopentyl-6-oxo-4H-thieno[2,3-c]pyrrol-5(6H)-yl)piperidine-2,6-dione], for which the inhibition at 10 µM in assay [2] (setting [9]) turned out to be 8%; in assay [5] (Homo sapiens, PBMC), 45%; in assay [7] (Homo sapiens, PBMC) it was 22%. Moreover, the cytotoxicity at 10 µM in assay [3] (setting [10]) stood at 13%.
With `Nc1cccc2c1CN(C1CCC(=O)NC1=O)C2=O` (stereo not drawn) [lenalidomide, reference compound], the “reduction of IL-6 levels” value in assay [2] (LPS-stimulated PBMCs (FIG. 6)) was “below 60%”. Besides, the “reduction of expression of TNF-α” value in assay [5] (equimolar concentration (FIG. 7)) is “below 60%”. For the same compound, in assay [7] (equimolar concentration (FIG. 5)), the “reduction of expression of IL-1-b” value is recorded as “over 60%”.

Broadly, the viability is a read-out of living cells in per cent, often relative to untreated cells. By pIC50 is commonly meant the negative decadic logarithm of the IC50, by convention in mol/L. For orientation: inhibition means the relative decrease from the control value, in per cent. A high value points to a response far below the control. A word on the remaining activity: it is the share of the control activity or signal that is left under treatment. A lower remaining activity goes with little activity left.
